# Experimental data as given in patent publication US11413267B2, “Methods and compositions for inhibition of ATR and FANCD2 activation” (priority 2012, dated 2022).
# Experiments:
# MDA-MB-231 cells = experiment: Mitotic entry assay (phospho-histone H3 Ser10, nocodazole trap, flow cytometry); assay type: cell-based, human
# Text: Of these, the G2/M checkpoint involves ATM and ATR in collaboration, whereas the S/M checkpoint is mediated solely by ATR. To maintain genetic integrity, ATR can prevent premature mitotic entry in the event of incomplete DNA replication or unrepaired DNA damage. In order to evaluate the effect of benzopyran-4-one derivatives on these ATR-associated DNA damage checkpoints, we observed the effect of benzopyran-4-one derivatives on mitotic entry following hydroxyurea or cisplatin treatment.
# (§1) DNA replication was measured using a Click-it EdU assay kit, which is based on incorporation of the thymidine analogue 5-ethynyl-2′-deoxyuridine (EdU) into DNA during replication (Invitrogen). Then, 10 μM EdU was added to the cell culture medium 30 min before the cells were harvested and fixed in 4% paraformaldehyde. After cycloaddition, EdU was detected with Alexa Fluor 647 using click reaction catalyzed by Cu (II), and the DNA content was stained by CellCycle 405-blue. To assay the mitotic entry, cells were treated with the indicated drugs and trapped in 70 nM nocodazole for 16 h, and antibodies against phospho-histone H3 Ser10 and PI were used to stain the mitotic cells and DNA content, respectively. An FITC Annexin V apoptosis detection kit was used to characterize the phenotype of cell death based on PI and Annexin V double staining (BD Pharmingen, San Diego, Calif.). Fluorescence-labeled cells were subsequently analyzed by the BD LSR II flow cytometer with a suitable selection of excitation and emission wavelengths. The percentages of different fluorescent cells were analyzed using WinMDI Ver. 2.9.
# [1] = tested on: ATR-dependent Chk1 phosphorylation; experiment: Immunoblot of DNA damage-induced Chk1 phosphorylation; assay type: cell-based, human; conditions: after H2O2 damage
# Text: (§2) We hypothesized that genes with functions associated with DNA damage checkpoints and/or DNA repair might be targeted by benzopyran-4-one derivatives. To test this hypothesis, we assessed the effects of benzopyran-4-one derivatives on DDR induced by H2O2. […] In response to DNA double-strand breaks (DSBs), FANCD2 is known to be monoubiquitinated on K561 (FANCD2-Ub) in an ATR-dependent manner to stimulate repair (Andreassen P R, et al. Genes Dev 2004).
# (§3) To elucidate the specificity of the benzopyran-4-one derivatives inhibition on ATR-mediated signaling, we compared the change between cells treated with benzopyran-4-one derivatives or the ATM-specific inhibitor KU55933 before the induction of DDR.
# (§4) MDA-MB-231 (breast adenocarcinoma; ATCC HTB-26, BCRC 60425) and A549 (lung adenocarcinoma; ATCC CCL-185, BCRC 60074) human cell lines were purchased from Bioresource Collection and Research Center (BCRC, Hsinchu, Taiwan), and were authenticated by American Type Culture Collection (ATCC, Manassas, Va.). U2OS (osteosarcoma), HeLa (cervical adenocarcinoma), and HEK 293T (embryonic kidney cells) human cell lines were provided by Dr. Sheau-Yann Shieh (Institute of Molecular Biology, Academia Sinica, Taipei, Taiwan). Cells were maintained in Dulbecco's modified Eagle's medium (DMEM, Sigma-Aldrich) supplemented with 10% fetal bovine serum (FBS) (Gibco). […] For UV irradiation treatment, the cells were irradiated for 10 J/m^2 by a cross-linker (UVP) 1 h prior to analysis.
# (§5) Cell lysate preparations, gel electrophoresis, and immunoblotting were performed as previously described (23). The binding of primary antibodies were detected by horseradish peroxidase-coupled secondary antibodies (Jackson ImmunoResearch) followed by enhanced chemiluminescence (ECL) (Millipore). The images of non-saturated bands were captured using a luminescent image analyzer (LAS-4000 mini; Fujifilm). The antibodies used in this study are listed in supplementary materials.
# [2] = tested on: ATM-mediated Chk2 phosphorylation; experiment: Immunoblot of DNA damage-induced Chk2 phosphorylation / ATM autophosphorylation; assay type: cell-based, human; conditions: after H2O2 damage
# Text: as §2, §3, §4, §5
# DNA replication = experiment: EdU incorporation assay of DNA replication; assay type: cell-based; conditions: 10 μM
# Description: as §1, with “5-ethynyl-2'-deoxyuridine” for “5-ethynyl-2′-deoxyuridine”, “To assay the mitotic entry, cells were treated with the indicated drugs and trapped in 70 nM nocodazole for 16 h, and antibodies against phospho-histone H3 Ser10 and PI were used to stain the mitotic cells and DNA content, respectively.” left out
# CHO cells = experiment: In vitro chromosome aberration test; assay type: cell-based, Chinese Hamster; conditions: 2.00 μM
# Description: To test this hypothesis, we investigated the cytogenetic effect of Protoapigenone (I-1) on CHO cells (FIG. 1).
# In brief, 5×10^5 Chinese Hamster Ovary (CHO) cells were seeded in 60-mm dishes 1 d before the experiment. Protoapigenone (I-1)-induced structural chromosomal changes after 20 h were compared with that of the cells cultured in 2 μM mitomycin C. At 18 h after Protoapigenone (I-1), 0.1 μg/mL colchicine was added for 2 h, and metaphase cells were collected by shaking them off the dishes. Mitotic cells were treated with 0.5% KCl for 10 min and fixed with a 3:1 mixture of methanol: glacial acetic acid. The cells were then spread on slides for chromosome staining with 5% Giemsa solution. We then analyzed the chromosome structure of 200 well-spread metaphase cells (100 metaphase cells/experiment) under a 100× oil immersion objective.
# [3] = DNA-damaging agent alone (Control group column)
compound,measurement,setting,value
N.N.[Cl][Pt][Cl] [Cisplatin],The percentage of mitotic cells,MDA-MB-231 cells; [3],5.35 ± 0.07%
NC(=O)NO [Hydroxyurea],The percentage of mitotic cells,MDA-MB-231 cells; [3],4.46 ± 0.67%
O=c1cc(-c2cccc3c2Sc2ccccc2S3)oc(N2CCOCC2)c1 [KU55933],"Percentage of mitotic cells in cisplatin-treated cells (G2/M checkpoint), in words",MDA-MB-231 cells; cisplatin-treated cells,increased the percentage of mitotic cells
same,The percentage of mitotic cells,"MDA-MB-231 cells; compound alone (Control group, no DNA-damaging agent)",20.29 ± 1.48%
same,The percentage of mitotic cells,MDA-MB-231 cells; compound with Cisplatin (G2/M checkpoint),9.70 ± 0.25%
same,The percentage of mitotic cells,MDA-MB-231 cells; compound with Hydroxyurea (S/M checkpoint),11.19 ± 0.76%
same,Effect on ATR-mediated Chk1 phosphorylation,[1],small
same,ATM-mediated Chk2 phosphorylation,[2],strongly inhibited
same,Percentage of EdU incorporation compared with control group,DNA replication,not
"CO[C@@]12[C@H](COC(N)=O)C3=C(C(=O)C(C)=C(N)C3=O)N1C[C@@H]1N[C@@H]12 [Mitomycin C, reference compound]",Chromatid break (No.),CHO cells; 200 cells per treatment,2 No.
same,Chromatid deletion,CHO cells; 200 cells per treatment,3 No.
same,Complex rerrangement,CHO cells; 200 cells per treatment,2 No.
same,Dicentric,CHO cells; 200 cells per treatment,1 No.
same,Polyploid,CHO cells; 200 cells per treatment,0 No.
same,Pulverized cell,CHO cells; 200 cells per treatment,5 No.
same,Quadriradial,CHO cells; 200 cells per treatment,29 No.
same,Ring,CHO cells; 200 cells per treatment,0 No.
same,Triradial,CHO cells; 200 cells per treatment,42 No.
same,Average aberrant metaphases (%),CHO cells; * significant vs. control by t-test,42.0 * %
